Measurements published in patent US20190208782A1, “PROCESSING COMPOSITION FOR C[…] WEEDS” (Arch Chemicals, Inc., priority 2018, published 2019).

Experiments:
water hyacinth = assay: Fluroxypyr ester and four potassium salt formulations as foliar application on water hyacinth (Example 5); assay type: in vivo
Procedure: Materials and Methods: Water hyacinth was obtained from field locations in Mississippi and cultured in a 300 gallon tank outdoors. Water in the culture tank was amended with 30 mg/L Miracle-Gro fertilizer (14-8-16) every week to maintain plant growth. Once a sufficient density of water hyacinth had been achieved in the culture tank, rosettes of similar size were harvested and divided so that six to seven rosettes were placed into each of 33, 100 gallon treatment tanks. The treatment tanks were filled to a depth of 45 cm with water. Water was amended with 30 mg/L of Miracle-Gro fertilizer to maintain plant growth. Plants were allowed to grow until the water surface in each tank had been covered by water hyacinth.
After the growth period plants were treated as a foliar spray based on the formulations and rates in Table 7. The treatments contained the fluroxypyr herbicide in an amount of 15% by weight. Each surfactant was added in an amount of 10% by weight. The remainder of the formulation was distilled water. Treatments were applied using water as a carrier in a fine foliar spray at a total spray volume of 100 gal/acre using a CO2 pressurized backpack sprayer and single nozzle boom. AB Brand Adjuvant was included in the herbicide solution at a rate of 0.25% v:v.
After treatment, each tank was rated for percent control from 0 to 100% control every week for four weeks. At four weeks after treatment (WAT) a 0.1 m^2 PVC quadrat was used to harvest 1 biomass sample from each tank if living biomass was present. Biomass samples were placed into labeled paper bags, dried in a forced air oven at 50 C for five days, and then weighed to determine dry weight biomass (g/DW/m^2). Differences between treatments were analyzed using ANOVA and means separated using a Fisher's Protected LSD test. All analyses were conducted a p≤0.05 significance level.

[1] = system: sago pondweed (Stuckenia pectinata); assay: Native plant selectivity screening in aquaria, sago pondweed (Example 6); assay type: in vivo; conditions: 50-3200 ug/L
Procedure: Materials and Methods: The study was conducted in an indoor aquaria facility. Elodea (Elodea canadensis) was obtained from cultures. Two apical tips approximately 10 cm long were planted into each of 48, plastic containers (16 oz. plastic cups). The containers were filled with potting soil and amended with 2 g/L Osmocote® fertilizer 19-6-12. A layer of sand was placed on top of the sediment in each container to prevent sediment re-suspension in the aquaria. Two containers of potted elodea were placed into each of 24 aquaria measuring 11.5 in×11.5 in×24 in. Additionally, sago pondweed (Stuckenia pectinata) tubers were obtained. The tubers were floated in shallow containers filled with water until new sprouts began to grow.
Once sprouted, two tubers were planted into 16 oz containers in a similar fashion as elodea. Two containers of potted sago pondweed were placed into each of the 24 aquaria, so that each aquarium had 4 potted plants (2 pots of each species). […]
At four weeks after treatment (WAT), plants were, harvested, sorted to aboveground biomass, dried in a forced air oven at 50 C for at least 48 h, and weighed for biomass determination (g/DW/aquaria). Differences between treatments were analyzed using an ANOVA, and if treatment differences were detected; means were separated using a Tukey's All-Pairwise comparison test. […]

## CCCCCCC(C)OC(=O)COc1nc(F)c(Cl)c(N)c1Cl (centres unmarked) [Fluroxypyr ester, [(4-amino-3,5-dichloro-6-fluoro-2-pyridinyl)oxy]acetic acid, 1-methylheptyl ester]
Water hyacinth; 4 WAT, Ester 8 oz/acre, potassium salt formulations 10 oz/acre, FIG. 6
  efficacy on water hyacinth biomass relative to the other fluroxypyr treatments: not as efficacious as the other fluroxypyr treatments
Water hyacinth; 8 oz/acre foliar, 1 WAT
  Mean percent control ratings of water hyacinth: 20%
Water hyacinth; 8 oz/acre foliar, 2 WAT
  Mean percent control ratings of water hyacinth: 25%
Water hyacinth; 8 oz/acre foliar, 3 WAT
  Mean percent control ratings of water hyacinth: 55%
Water hyacinth; 8 oz/acre foliar, 4 WAT
  Mean percent control ratings of water hyacinth: 75%
Water hyacinth; 16 oz/acre foliar, 1 WAT
  Mean percent control ratings of water hyacinth: 20%
Water hyacinth; 16 oz/acre foliar, 2 WAT
  Mean percent control ratings of water hyacinth: 45%
Water hyacinth; 16 oz/acre foliar, 3 WAT
  Mean percent control ratings of water hyacinth: 85%
Water hyacinth; 16 oz/acre foliar, 4 WAT
  Mean percent control ratings of water hyacinth: 95%
[1]; four weeks of static exposure
  adverse effects on sago pondweed: did not exhibit any adverse effects
[1]; throughout the study, static exposure
  visible herbicide symptoms on sago pondweed: no visible herbicide symptoms
